According to PubChem BioAssay AID2060500 (Molecular Pharmacology Branch, DTP, NCI, 2025):
pIC50: −log10 of the molar value.

Tested on: 596521-263-R-J1-PDC complex spheroids, viability % of control
Experiment: Anticancer human tumor 596521-263-R-J1-PDC patient-derived soft tissue sarcoma cell line growth inhibition [GQUAD]
Conditions: for pIC50: curve of first compound; for viability, T/C: stronger effect = lower value
Summary of the method: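 Multi-cell-type spheroids of tumor cells with HUVEC and mesenchymal stem cells, treated with drug combinations. Concentrations descend in half-log steps from near clinical Cmax, or from 10 microM where Cmax is unknown; viability read-out.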

[1] = second compound 0.0316 µM, first compound 0.0316 µM
[2] = second compound 0.0316 µM, first compound 0.1 µM
[3] = second compound 0.0316 µM, first compound 0.316 µM
[4] = second compound 0.0316 µM, first compound 1 µM
[5] = second compound 0.0316 µM, first compound 3.16 µM
[6] = second compound 0.0316 µM, first compound 10 µM
[7] = second compound 0.1 µM, first compound 0.0316 µM
[8] = second compound 0.1 µM, first compound 0.1 µM
[9] = second compound 0.1 µM, first compound 0.316 µM
[10] = second compound 0.1 µM, first compound 1 µM
[11] = second compound 0.1 µM, first compound 3.16 µM
[12] = second compound 0.1 µM, first compound 10 µM
[13] = second compound 0.316 µM, first compound 0.0316 µM
[14] = second compound 0.316 µM, first compound 0.1 µM
[15] = second compound 0.316 µM, first compound 0.316 µM
[16] = second compound 0.316 µM, first compound 1 µM
[17] = second compound 0.316 µM, first compound 3.16 µM
[18] = second compound 0.316 µM, first compound 10 µM
[19] = second compound 1 µM, first compound 0.0316 µM
[20] = second compound 1 µM, first compound 0.1 µM
[21] = second compound 1 µM, first compound 0.316 µM
[22] = second compound 1 µM, first compound 1 µM
[23] = second compound 1 µM, first compound 3.16 µM
[24] = second compound 1 µM, first compound 10 µM
[25] = second compound 3.16 µM, first compound 0.0316 µM
[26] = second compound 3.16 µM, first compound 0.1 µM
[27] = second compound 3.16 µM, first compound 0.316 µM
[28] = second compound 3.16 µM, first compound 1 µM
[29] = second compound 3.16 µM, first compound 3.16 µM
[30] = second compound 3.16 µM, first compound 10 µM
[31] = second compound 10 µM, first compound 0.0316 µM
[32] = second compound 10 µM, first compound 0.1 µM
[33] = second compound 10 µM, first compound 0.316 µM
[34] = second compound 10 µM, first compound 1 µM
[35] = second compound 10 µM, first compound 3.16 µM
[36] = second compound 10 µM, first compound 10 µM
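Note: spheroids exposed to drugs for 7 days before viability reading.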
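Throughout, for viability, T/C: 100% = DMSO vehicle control viability.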

With CC(C)(O)C1CCC(Nc2ccc3ncc(-c4cccc(C(F)(F)F)c4)n3n2)CC1 (stereo unspecified) + Cc1[nH]c2ccc(F)cc2c1-c1nc2c3cccnc3c3ncccc3c2[nH]1 the pIC50 (second compound 0.0316 µM) was under 5.00, the pIC50 (second compound 0.1 µM) was under 5.00 and the pIC50 (second compound 0.316 µM) was under 5.00. The pIC50 (second compound 1 µM) was under 5.00, the pIC50 (second compound 3.16 µM) was under 5.00 and the pIC50 (second compound 10 µM) was under 5.00. For the same compound, the viability, T/C [1] was 98.3%, the viability, T/C [2] was 96.8% and the viability, T/C [3] was 97.9%. It also gave a viability, T/C [4] of 101%, a viability, T/C [5] of 102% and a viability, T/C [6] of 87.2%. The viability, T/C [7] was 120%, the viability, T/C [8] was 92.5% and the viability, T/C [9] was 92.3%. The viability, T/C [10] was 100%, the viability, T/C [11] was 96.4% and the viability, T/C [12] was 81.7%. The viability, T/C [13] was 98.5%, the viability, T/C [14] was 90.6% and the viability, T/C [15] was 103%. For the same compound, the viability, T/C [16] was 92.3%, the viability, T/C [17] was 103% and the viability, T/C [18] was 82.9%. The viability, T/C [19] was 90.7%, the viability, T/C [20] was 88.5% and the viability, T/C [21] was 98.5%. The viability, T/C [22] was 101%, the viability, T/C [23] was 106% and the viability, T/C [24] was 79.5%. For the same compound, the viability, T/C [25] was 89.3%, the viability, T/C [26] was 96.5% and the viability, T/C [27] was 94.1%. It also gave a viability, T/C [28] of 83.2%, a viability, T/C [29] of 95.2% and a viability, T/C [30] of 80.6%. For the same compound, the viability, T/C [31] was 77.7%, the viability, T/C [32] was 92% and the viability, T/C [33] was 91%. For the same compound, the viability, T/C [34] was 86.4%, the viability, T/C [35] was 84.9% and the viability, T/C [36] was 68.6%.

Work on COc1ncnc(C2CC2)c1-c1ncc2cnn(Cc3ccc(-c4nc(C(F)(F)F)cn4C(C)C)cc3)c2n1 + Cc1[nH]c2ccc(F)cc2c1-c1nc2c3cccnc3c3ncccc3c2[nH]1 yielded a pIC50 (second compound 0.0316 µM) of 5.84, a pIC50 (second compound 0.1 µM) of 5.82 and a pIC50 (second compound 0.316 µM) of 5.92. It also gave a pIC50 (second compound 1 µM) of 5.92, a pIC50 (second compound 3.16 µM) of 5.92 and a pIC50 (second compound 10 µM) of 6.00. It also gave a viability, T/C [1] of 100%, a viability, T/C [2] of 88.8% and a viability, T/C [3] of 79.6%. The viability, T/C [4] was 56.9%, the viability, T/C [5] was 33.5% and the viability, T/C [6] was 2.52%. For the same compound, the viability, T/C [7] was 98.8%, the viability, T/C [8] was 90.4% and the viability, T/C [9] was 75.6%. It also gave a viability, T/C [10] of 67%, a viability, T/C [11] of 27.1% and a viability, T/C [12] of 2.12%. It also gave a viability, T/C [13] of 85.8%, a viability, T/C [14] of 95.4% and a viability, T/C [15] of 80.3%. The viability, T/C [16] was 49.7%, the viability, T/C [17] was 27.8% and the viability, T/C [18] was 1.85%. It also gave a viability, T/C [19] of 87.2%, a viability, T/C [20] of 78.8% and a viability, T/C [21] of 75%. For the same compound, the viability, T/C [22] was 49.9%, the viability, T/C [23] was 31.1% and the viability, T/C [24] was 1.7%. The viability, T/C [25] was 84.9%, the viability, T/C [26] was 95.3% and the viability, T/C [27] was 68.5%. For the same compound, the viability, T/C [28] was 53.9%, the viability, T/C [29] was 29.4% and the viability, T/C [30] was 2.26%. For the same compound, the viability, T/C [31] was 95.4%, the viability, T/C [32] was 76.7% and the viability, T/C [33] was 71.3%. For the same compound, the viability, T/C [34] was 54.6%, the viability, T/C [35] was 20.6% and the viability, T/C [36] was 1.93%.

CC(C)n1c(=O)n(C)c2cnc3cc(F)c(-c4ccc(OCCCN5CCCCC5)nc4)cc3c21 + Cc1cnc(CNC(=O)c2c(=O)c3ccc(N4CCCN(C)CC4)nc3n3c2sc2ccccc23)cn1 gave a pIC50 (second compound 0.0316 µM) of under 5.00, a pIC50 (second compound 0.1 µM) of under 5.00 and a pIC50 (second compound 0.316 µM) of under 5.00. For the same compound, the pIC50 (second compound 1 µM) was under 5.00, the pIC50 (second compound 3.16 µM) was 6.65 and the pIC50 (second compound 10 µM) was over 7.50. It also gave a viability, T/C [1] of 82.1%, a viability, T/C [2] of 67% and a viability, T/C [3] of 78.3%. For the same compound, the viability, T/C [4] was 73%, the viability, T/C [5] was 75.5% and the viability, T/C [6] was 61.9%. It also gave a viability, T/C [7] of 70.6%, a viability, T/C [8] of 61.3% and a viability, T/C [9] of 68.2%. The viability, T/C [10] was 63.9%, the viability, T/C [11] was 58.6% and the viability, T/C [12] was 57.8%. The viability, T/C [13] was 69.3%, the viability, T/C [14] was 67.3% and the viability, T/C [15] was 63.5%. For the same compound, the viability, T/C [16] was 62.5%, the viability, T/C [17] was 62.4% and the viability, T/C [18] was 47.6%. The viability, T/C [19] was 63.8%, the viability, T/C [20] was 61.8% and the viability, T/C [21] was 52.3%. For the same compound, the viability, T/C [22] was 54.3%, the viability, T/C [23] was 64.4% and the viability, T/C [24] was 48.3%. It also gave a viability, T/C [25] of 51.6%, a viability, T/C [26] of 53.3% and a viability, T/C [27] of 49.7%. The viability, T/C [28] was 46.4%, the viability, T/C [29] was 42.5% and the viability, T/C [30] was 40.3%. It also gave a viability, T/C [31] of 51.8%, a viability, T/C [32] of 44.7% and a viability, T/C [33] of 44.9%. The viability, T/C [34] was 44.9%, the viability, T/C [35] was 46.7% and the viability, T/C [36] was 9.8%.
